From patent US20160031839A1, “ARGININE […] INHIBITORS AND USES THEREOF” (EPIZYME, INC., priority 2013, published 2016)
Read-outs that look alike come from different tables or passages of the source.

Biological target: T1, PRMT3 (Homo sapiens, UniProt O60678)
T1 construct: made in house; host or cells: E. coli BL21(DE3) Gold
Assay: PRMT3 Biochemical Assay
From the text: Peptide containing the classic RMT substrate motif was synthesized with an N-terminal linker-affinity tag motif and a C-terminal amide cap by 21st Century Biochemicals. The peptide was purified by high-performance liquid chromatography (HPLC) to greater than 95% purity and confirmed by liquid chromatography mass spectrometry (LC-MS). The sequence was Biot-Ahx-[…]-amide (SEQ ID NO.:11).
Full-length human PRMT3 (NM_005788.3) isoform 1 transcript clone was amplified from an HEK 293 cDNA library and subcloned into pGEX-KG (GE Life Sciences). The resulting construct encodes an N-terminal GST tag and a thrombin cleavage sequence
GST-tagged PRMT3 was eluted with 50 mM Tris, 2 mM glutathione, pH 7.1 and 50 mM Tris, 20 mM glutathione, pH 7.1. Pooled fractions were dialysed in 20 mM Tris, 50 mM NaCl, 5% glycerol, 1 mM EDTA, 1 mM DTT, pH7.5 (Buffer B) and applied to a Q Sepharose Fast Flow column. GST-tagged PRMT3 was eluted by 500 mM NaCl in buffer B. Pooled fractions were dialyzed in 25 mM phosphate buffer, 100 mM NaCl, 5% glycerol, 2 mM DTT, pH 6.8 (Buffer C) and loaded on to a ceramic hydroxyapatite column. GST-tagged PRMT3 eluted with 25-400 mM phosphate in buffer C. Protein was concentrated and buffer was exchanged to 20 mM Tris, 150 mM NaCl, 5% glycerol, 5 mM β-mercaptoethanol, pH7.8 by ultrafiltration. The purity of recovered protein was 70%.
General Procedure for PRMT3 Enzyme Assays on Peptide Substrates.
The assays were all performed in a buffer consisting of 20 mM Bicine (pH=7.6), 1 mM TCEP, 0.005% BSG, and 0.002% Tween 20, prepared on the day of use. Compounds in 100% DMSO (1 ul) were spotted into a polypropylene 384-well V-bottom plates (Greiner) using a Platemate Plus outfitted with a 384-channel head (Thermo Scientific). DMSO (1 ul) was added to Columns 11, 12, 23, 24, rows A-H for the maximum signal control and 1 ul of SAH, a known product and inhibitor of PRMT3, was added to columns 11, 12, 23, 24, rows I-P for the minimum signal control. A cocktail (40 ul) containing the PRMT3 enzyme was added by Multidrop Combi (Thermo-Fisher). The compounds were allowed to incubate with PRMT3 for 30 min at room temperature, then a cocktail (10 ul) containing SAM and peptide was added to initiate the reaction (final volume=51 ul). The final concentrations of the components were as follows: PRMT3 was 0.5 nM, ^3H-SAM was 100 nM, non-radiolabeled SAM was 1.8 uM, peptide was 330 nM, SAH in the minimum signal control wells was 1 mM, and the DMSO concentration was 2%. The assays were stopped by the addition of potassium chloride (10 ul) to a final concentration of 100 mM. 50 ul of the reaction in the 384-well polypropylene plate was then transferred to a 384-well Flashplate and the biotinylated peptides were allowed to bind to the streptavidin surface for at least 1 hour before being washed once with 0.1% Tween20 in a Biotek ELx405 plate washer. The plates were then read in a PerkinElmer TopCount plate reader to measure the quantity of ^3H-labeled peptide bound to the Flashplate surface, measured as disintegrations per minute (dpm) or alternatively, referred to as counts per minute (cpm).
Where dpm=disintegrations per minute, cmpd=signal in assay well, and min and max are the respective minimum and maximum signal controls.
Where top and bottom are the normally allowed to float, but may be fixed at 100 or 0 respectively in a 3-parameter fit. The Hill Coefficient normally allowed to float but may also be fixed at 1 in a 3-parameter fit. Y is the % inhibition and X is the compound concentration.

[1] = Table 2, biochemical evaluation, read-out: PRMT3 IC50 (class)
[2] = Table 2a, numerical, single experiment or average of multiple experiments, read-out: PRMT3 IC50

T1 sequence (O60678 with tags, fused parts or gaps): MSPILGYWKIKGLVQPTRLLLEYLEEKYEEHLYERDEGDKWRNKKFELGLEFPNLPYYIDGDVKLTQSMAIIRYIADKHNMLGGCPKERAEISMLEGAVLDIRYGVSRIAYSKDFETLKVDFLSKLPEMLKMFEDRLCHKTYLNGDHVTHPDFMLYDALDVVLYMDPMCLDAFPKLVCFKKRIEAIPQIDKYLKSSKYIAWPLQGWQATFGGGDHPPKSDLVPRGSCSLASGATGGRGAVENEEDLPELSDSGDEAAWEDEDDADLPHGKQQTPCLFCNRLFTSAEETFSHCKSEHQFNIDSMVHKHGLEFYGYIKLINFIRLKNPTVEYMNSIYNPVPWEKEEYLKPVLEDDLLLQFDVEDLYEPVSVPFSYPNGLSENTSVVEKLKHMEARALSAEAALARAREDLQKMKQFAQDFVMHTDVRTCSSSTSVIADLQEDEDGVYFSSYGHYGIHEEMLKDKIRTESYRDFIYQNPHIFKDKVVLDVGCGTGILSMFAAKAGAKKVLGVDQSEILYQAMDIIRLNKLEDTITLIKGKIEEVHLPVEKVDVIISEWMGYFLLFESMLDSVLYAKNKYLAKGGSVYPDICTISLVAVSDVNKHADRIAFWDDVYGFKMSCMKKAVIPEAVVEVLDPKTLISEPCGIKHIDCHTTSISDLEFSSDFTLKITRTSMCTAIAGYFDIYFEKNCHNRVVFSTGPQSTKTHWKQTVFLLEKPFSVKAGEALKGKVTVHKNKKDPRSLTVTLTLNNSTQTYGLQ

SMILES	IC50 [1] [µM]	IC50 [2] [µM]
CN(CCN)Cc1ncoc1-c1ccc(C#N)cc1 [Compound 1, 4-(4-(((2-aminoethyl)(methyl)amino)methyl)oxazol-5-yl)benzonitrile]	> 10	> 10
CN(CCN)Cc1ccnn1-c1ccc(C#N)cc1 [Compound 2, 4-(5-(((2-aminoethyl)(methyl)amino)methyl)-1H-pyrazol-1-yl)benzonitrile]	> 10	> 10
CN(CCN)Cc1n[nH]nc1-c1ccc(C#N)cc1 [Compound 3, 4-(5-(((2-aminoethyl)(methyl)amino)methyl)-2H-1,2,3-triazol-4-yl)benzonitrile]	> 10	> 10
